According to patent US20200063104A1, “EXPANSION OF HPSC-DERIVED GRANULOCYTIC AND LYMPHOID PROGENITORS WITH UM171” (Wisconsin Alumni Research Foundation, priority 2018, published 2020):

Assays:
[1] = system: hPSCs (NK cell production); details: 28-day period, prior studies; cited from earlier work
[2] = system: hPSC-derived HPs (CFC potential); test: Methylcellulose colony forming assay of expanded HPs; type: cell-based, human
Protocol: Hematopoietic colony forming potential was assessed by combining cells of interest with 1.5 ml serum containing H4436 Methocult (Stem Cell Technologies). Cell suspensions were then transferred to 35-mm dishes and cultured for 12-14 days at 37° C. Hematopoietic colonies were scored according to cellular morphology, and CFC numbers were normalized to the number of cells plated (CFCs/10^4) cells.

[3] = system: CD34+CD43+ hPSC-derived HPs; test: Apoptosis by annexin V assay in HP expansion cultures; type: cell-based, human; details: 5 days of expansion, UM171 vs DMSO
Protocol: (§1) For apoptosis detection, cells were stained with CD34-FITC, CD45-BV421, and CD43-APC (BD Pharmingen), along with PI and Annexin V-PE (BD Pharmingen), and analyzed by flow cytometry. To assess proliferation of hematopoietic progenitors, using cell proliferation antigen Ki-67, cells were incubated with CD34-PE, CD43-BV421 (BD Pharmingen), and Ghost violet 540 cell viability dye (TONBO Biosciences). Cells were then fixed and permeabilized with 70% ethanol, and stained with Ki67-APC (Miltenyi Biotech), according to the manufacturer protocol, and analyzed by flow cytometry. Cell cycle analysis of total hematopoietic progenitors was carried out using the FITC BrdU flow kit (BD Pharmingen), following manufacturer recommendations. On day four of HP expansion in HSC or lymphoid expansion conditions and on day 3 of NK differentiation cells were labelled with BrdU. […] CD34^+CD43^+CD45^+ and CD34^+CD43^+CD45^+CD41a^+ hematopoietic progenitors, CD34^+CD45^+CD7^+, lymphoid progenitors, or CD45^+CD56^+ NK cells were then analyzed for cell cycle kinetics and proliferation, through BrdU incorporation.

[4] = system: CD34+CD43+ hPSC-derived HPs; test: Proliferation and cell cycle (BrdU assay, Ki67 staining) in HP expansion cultures; type: cell-based, human
Protocol: For apoptosis detection, cells were stained with CD34-FITC, CD45-BV421, and CD43-APC (BD Pharmingen), along with PI and Annexin V-PE (BD Pharmingen), and analyzed by flow cytometry. To assess proliferation of hematopoietic progenitors, using cell proliferation antigen Ki-67, cells were incubated with CD34-PE, CD43-BV421 (BD Pharmingen), and Ghost violet 540 cell viability dye (TONBO Biosciences). Cells were then fixed and permeabilized with 70% ethanol, and stained with Ki67-APC (Miltenyi Biotech), according to the manufacturer protocol, and analyzed by flow cytometry. Cell cycle analysis of total hematopoietic progenitors was carried out using the FITC BrdU flow kit (BD Pharmingen), following manufacturer recommendations. On day four of HP expansion in HSC or lymphoid expansion conditions and on day 3 of NK differentiation cells were labelled with BrdU. After 24 hours, samples were collected and incubated with CD34-PE, CD43-BV421 (BD Pharmingen), and CD45-APC (Miltenyi Biotech); CD34-PE or 34 PerCP, CD45-BV421 (BD Pharmingen), and CD41a-APC (Miltenyi Biotech); CD45-BV421, CD7-PE, and CD34-APC (BD Pharmingen); or CD45-BV421 and CD56-APC (BD Pharmingen), and then counterstained with Ghost violet 540 cell viability dye (TONBO Biosciences). This was followed by fixation, permeabilization, and a 1 hour incubation with DNase at 37° C., to expose incorporated BrdU. After washing, cells were stained first with anti BrdU-FITC, followed by 7AAD, and flow cytometry was performed. CD34^+CD43^+CD45^+ and CD34^+CD43^+CD45^+CD41a^+ hematopoietic progenitors, CD34^+CD45^+CD7^+, lymphoid progenitors, or CD45^+CD56^+ NK cells were then analyzed for cell cycle kinetics and proliferation, through BrdU incorporation.

[5] = system: CD34+CD235+CD41a+ cells; test: RNAseq analysis of CD34+CD235+CD41a+ cells expanded in HSC expansion conditions; type: cell-based, human
Protocol: To analyze changes in molecular profile induced by UM171, we isolated CD34^+CD235^+CD41a^+ cells on day 9 of differentiation, cultured them in HSC expansion conditions with UM171 or DMSO for 16 hours and 5 days, and then performed RNAseq analysis of expanded cells.
Total RNA was isolated using RNeasy Micro Kit (Qiagen) and subjected to DNase digestion, according to the manufacturer's protocol. Isolated RNAs were used for either quantitative RT-PCR or RNA sequencing. RNA purity and integrity was evaluated by capillary electrophoresis on the Bioanalyzer 2100 (Agilent Technologies, Santa Clara, Calif.). […] Final sample libraries were quantitated with the Life Technologies Qubit fluorometer and sequenced on the Illumina HiSeq 3000 (SY-401-3001). […] Following quality assessment and filtering for adapter molecules and other sequencing artifacts, the sequencing reads were aligned to transcript sequences corresponding to hg19 human genome annotation. Bowtie v 1.1.2 was used allowing two mismatches in a 25 bp seed and excluding reads with more than 200 alignments^25. RSEM v 1.3.0 was used to estimate isoform or gene relative expression levels in units of “transcripts per million” (tpm), as well as posterior mean estimate of the “expected counts” (the non-normalized absolute number of reads assigned by RSEM to each isoform/gene)^26,27. […]

[6] = system: hPSC-derived HPs (NK cell production); test: NK cell differentiation of hPSC-derived HPs on OP9-DLL4; type: cell-based, human
Text: To assess the effect of UM171 on NK cell differentiation, we collected HPs from hPSC cultures on day 9 of differentiation, and cultured them on OP9-DLL4, with or without UM171, as shown in FIG. 5A. After 14 days, these cultures generated CD56^+ NK cells that expressed CD94 and CD16, markers of mature NK cells. Although UM171 had no effect on the percentages of NK cells or their phenotype, the absolute numbers of NK cells generated with UM171 were approximately 10-fold higher as compare to DMSO controls (FIG. 5B-D). […] Similar findings were obtained with HPs generated from H9 hESCs and the IISH2i-BM9 iPSC line that was derived from bone marrow mononuclear cells (FIG. 9).
NK differentiation of hematopoietic progenitor cells was performed in α-MEM (Gibco), supplemented with 20% FBS (HyClone), on mouse OP9-DLL4 expressing feeder layer, in two stages. In stage 1, hematopoietic progenitor cells were cultured for 7 days on OP9-DLL4, with 100 ng/ml FLT3L, 40 ng/ml SCF, and 5 ng/ml IL-7 (Peprotech), and 35 nM UM171 or equivalent volume DMSO. Cells were then transferred to fresh α-MEM media, supplemented with 10 ng/ml Il-2 and 5 ng/ml IL-15 (Peprotech), and with or without UM171 treatment. Media was topped up with one volume fresh media, every 3-4 days, and cultures were transferred to new OP9-DLL4 cells, every 7 days. After 14 to 21 days, cells were harvested for flow cytometry and other analyses. OP9-DLL4 were used at 75-80% confluency.

[7] = system: CD34+CD45+CD7+ progenitors; test: BrdU cell cycle analysis in NK differentiation cultures; type: cell-based, human; details: lymphoid stage of NK differentiation
Protocol: as §1

[8] = system: CD34+CD43+ hPSC-derived HPs; test: Expansion of hPSC-derived hematopoietic progenitors in HSC expansion conditions (flow cytometry); type: cell-based, human
Text: To understand the effect of UM171 on hPSC-derived HPs and provide mechanistic insight on its action, we performed hematopoietic differentiation of H1 hESCs in defined feeder- and serum-free defined conditions for 9 days to generate HPs^10. We then cultured the cells in SFEM medium supplemented with cytokines that support expansion of HSCs (TPO, SCF, FLT3L, IL3 and IL6), and with UM171 or DMSO (negative control) (FIG. 1A). […] Overall, cultures with UM171 generated up to 10-fold higher numbers of CD34^+CD43^+CD45^+ HPs, as compared to control cultures.
Hematopoietic progenitors from Day 9 differentiation cultures were expanded in StemSpan™-SFEM (Stem Cell Technologies), supplemented with 35 nM UM171 (Xcess Biosciences), or equivalent volume of DMSO, and 100 ng/ml TPO, 100 ng/ml SCF, 100 ng/ml FLT3L, 50 ng/ml IL-6, and 10 ng/ml IL-3. Expansion cultures were supplemented with fresh StemSpan™-SFEM (Stem Cell Technologies) media with the same cytokine concentrations, every 3 days. Cells were plated at up to 150,000 cells/ml. At day 5 or indicated time points, cells were collected for flow cytometric (FCM) analysis and CFU assay. […]

[9] = 5 days of expansion, UM171 vs DMSO

SMILES	fold increase in NK cell output [1]	effect on CFC potential of expanded cells ([2]; HPs expanded 5 and 7 days with UM171 vs DMSO)	share of G-CFCs in the CD34+CD41a(lo)CD45+ progenitor population ([2]; UM171 cultures with HSC expansion cytokines) [%]	number of apoptotic, especially late apoptotic (AnnexinV+PI+) cells [3]	number of viable cells [3]	cell cycle distribution of HPs [4, 9]	proliferation of HPs by BrdU assay and Ki67 staining [4, 9]	proportions of CD41a(lo) and CD41a(hi) cells within BrdU+ fraction ([4]; UM171 expansion cultures)	fold higher frequency of proliferating CD41a(lo) HPs as compared to DMSO control ([4]; within BrdU+ fraction, CD34+CD45+ gated, 5 days of expansion)	expression of aryl-hydrocarbon receptor target genes ([5]; UM171 vs DMSO, 16 hours and 5 days)	AHR and AHRR expression ([5]; hPSC-derived HPs)	fold higher absolute numbers of NK cells as compared to DMSO controls ([6]; 35 nM UM171, after 14 days on OP9-DLL4)	stage of NK differentiation at which addition has an effect ([6]; added during first 7 or final 7-14 days)	percentages of NK cells or their phenotype ([6]; after 14 days on OP9-DLL4, UM171 vs DMSO)	fold increase in NK cell output ([6]; lymphoid cultures on OP9-DLL4 with SCF, FLT3L, IL7, 14-day period)	fold increase in NK and T cell output ([6]; lymphoid cultures on OP9-DLL4 with SCF, Flt-3, IL7)	proportion of proliferating CD34+CD45+CD7+ progenitors [7]	fold higher numbers of CD34+CD43+CD45+ HPs as compared to control cultures ([8]; 35 nM UM171 vs DMSO, H1 hESC-derived day 9 HPs, SFEM with TPO, SCF, FLT3L, IL3, IL6)	CD201 expression in CD34+CD45+ HPs ([8]; HSC expansion conditions, 35 nM UM171)
CC(C)n1cnc2c(NCCc3ccc(O)cc3)nc(-c3csc4ccccc34)nc21 [SR1]	up to 2 fold	–	–	–	–	–	–	–	–	–	–	–	–	–	–	–	–	–	–
Cn1nnc(-c2ccc3c(c2)[nH]c2nc(Cc4ccccc4)nc(NC4CCC(N)CC4)c23)n1 (stereo not shown) [UM171]	–	most dramatic effect on G-CFCs	> 50	decreased number of apoptotic	increased number of viable cells	predominantly increases the proportion of HPs in the early S phase	increased proliferation	approximately equal proportions	up to 7 fold	did not affect	minimal effect	approximately 10 fold	only when added during the first 7 days	no effect	up to 10 fold	up to 10 fold	increases the proportion of proliferating	up to 10 fold	induction of CD201 expression
